{"source": "patent US7173014B2", "about": "“HIV-specific synthetic oligonucleotides and methods of their use” (priority 1997, dated 2007)", "key": {"[1]": {"test_system": "monocyte-macrophage-tropic strains BaL and ADA", "test": "Anti-HIV assay in fresh human monocyte-macrophages", "assay_type": "cell-based, HIV-1", "description": "In addition to these T-tropic strains, the activity of the compounds was also evaluated against the monocyte-macrophage strains BaL and ADA. Oligos 12 and 32 according to the invention, as well as Oligo 41 are active against low passage clinical T-tropic strains of HIV-1. The activity of the compounds varies from strain to strain. The compounds were not active against the monocyte-macrophage-tropic strains BaL and ADA.\nFor isolation of adherent cells, 3×10^6 non-PHA stimulated peripheral blood cells were resuspended in Hanks buffered saline (with calcium and magnesium) supplemented with 10% human AB serum. The cells were placed in a 24-well microtiter plate at 37° C. for 2 hours. Non-adherent cells were removed by vigorously washing six times. The adherent cells were cultured for 7 days in RPMI 1640 tissue culture medium with 15% fetal bovine serum. The cultures were carefully monitored for confluency during this incubation period. Infection of the cells was performed with the monocytotropic HIV-1 strains BaL or ADA and the matched pair of AZT-sensitive and AZT-resistant virus isolates. Each of these virus isolates was obtained from the NIAID AIDS Research and Reference Reagent Program. High titer pools of each of these viruses have been harvested from infected cultures of peripheral blood adherent cells and frozen in 1.0 ml aliquots at −80° C. Monocyte-macrophage monolayers were infected at an MOI of 0.1. Compounds to be evaluated in the monocyte-macrophage assay are added to the monolayers shortly before infection in order to maximize the potential for identifying active compounds.\nAt 2 days post-infection, the medium was decanted and the cultures washed twice with complete medium in order to remove excess virus. […] Control curves are generated in each assay to accurately quantify the amount of capsid protein in each sample. Data was obtained by spectrophotometric analysis at 450 nm using a plate reader (Molecular Devices Vmax). P24 concentrations were calculated from the optical density values by use of the Molecular Device software package Soft Max."}, "[2]": {"test_system": "low passage, clinical strains of HIV-1", "test": "Anti-HIV activity in fresh human peripheral blood mononuclear cells", "assay_type": "cell-based", "details": "fresh human PBMC; varies from strain to strain", "description": "In another experiment, the anti-HIV activity of Oligos 12, 32, and 41 was evaluated against a variety of low passage, clinical strains of HIV-1 in fresh human peripheral blood mononuclear cells. These strains include viruses obtained from pediatric patients attending the Children's Hospital University of Alabama at Birmingham as well as viruses representative of the various HIV-1 clades found throughout the world, shown below in TABLE 4.\nFresh human peripheral blood lymphocytes (PBL) were isolated from voluntary Red Cross donors, seronegative for HIV and HBV. Leukophoresed blood was diluted 1:1 with Dulbecco's phosphate buffered saline (PBS), layered over 14 ml of Ficoll-Hypaque density gradient in a 50 ml centrifuge tube. Tubes were then centrifuged for 30 minutes at 600×g. Banded PBLs were gently aspirated from the resulting interface and subsequently washed 2× with PBS by low speed centrifugation. After final wash, cells were enumerated by trypan blue exclusion and re-suspended at 1×10^7/ml in RPMI 1640 with 15% Fetal Bovine Serum (FBS), 2 mM L-glutamine, […] PHA-P and allowed to incubate for 48–72 hours at 37° C. After incubation, PBLs were centrifuged and reset in RPMI 1640 with 15% FBS, 2 mM L-glutamine, 100 U/ml penicillin, 100 μg/ml streptomycin, 10 μg/ml gentamycin, and 20 U/ml recombinant human IL-2. PBLs were maintained in this medium at a concentration of 1–2×10^6/ml with bi-weekly medium changes, until use in assay protocol. […]\nIn the standard PBL assay (MOI: 0.2), the assay was ended on day 7 following collection of cell free supernatant samples for reverse transcriptase activity assay. In the low MOI PBL assay (MOI: 0.02), supernatant samples were collected on day 6, day 11, and day 14 post-infection and analyzed for RT activity. […] Opti-Fluor O was added to each sample and incorporated radioactivity was quantified utilizing a liquid scintillation counter, (Wallac 1450 Microbetaplus, Gaithersburg, Md.)."}}}
{"substance": "Oligo 41: oligonucleotide having SEQ ID NO:6; sequence not printed, not listed in TABLE 2 (UCGCACCCATCTCTCTCCUUC; chemistry not given here)", "values": [{"measurement": "activity against monocyte-macrophage-tropic strains BaL and ADA", "setting": "[1]", "value": "not active"}, {"measurement": "activity against low passage clinical T-tropic strains of HIV-1", "setting": "[2]", "value": "active"}]}
